Blank lines part the entries; values can stand above or below the compound they belong to. Activity calls are given as the source filed them.
How the values were obtained:
SUMO-activating enzyme = SUMO-activating enzyme (Homo sapiens, UniProt Q9UBT2); experiment: blockers of SAE1/SAE2–UBC9 SUMO transfer – biochemical, HTRF, uHTS, primary screen (AID 2006); format: protein-complex assay
[1] = biological target: Cystic fibrosis transmembrane conductance regulator/Golgi-associated PDZ and coiled-coil motif-containing protein (Homo sapiens, UniProt P13569+Q9HD26); experiment: potency against CAL PDZ-peptide interaction – biochemical, fluorescence polarization, Cerulean-tagged CAL PDZ, cherry-picks, dose response (AID 504773)
Hexokinase HKDC1 = biological target: T1, Hexokinase HKDC1 (Homo sapiens, UniProt Q2TB90); experiment: analog inhibition of human HKDC1 activity – biochemical, set 2, SAR follow-up (AID 588355); format: functional
T1 sequence (Q2TB90 whole entry): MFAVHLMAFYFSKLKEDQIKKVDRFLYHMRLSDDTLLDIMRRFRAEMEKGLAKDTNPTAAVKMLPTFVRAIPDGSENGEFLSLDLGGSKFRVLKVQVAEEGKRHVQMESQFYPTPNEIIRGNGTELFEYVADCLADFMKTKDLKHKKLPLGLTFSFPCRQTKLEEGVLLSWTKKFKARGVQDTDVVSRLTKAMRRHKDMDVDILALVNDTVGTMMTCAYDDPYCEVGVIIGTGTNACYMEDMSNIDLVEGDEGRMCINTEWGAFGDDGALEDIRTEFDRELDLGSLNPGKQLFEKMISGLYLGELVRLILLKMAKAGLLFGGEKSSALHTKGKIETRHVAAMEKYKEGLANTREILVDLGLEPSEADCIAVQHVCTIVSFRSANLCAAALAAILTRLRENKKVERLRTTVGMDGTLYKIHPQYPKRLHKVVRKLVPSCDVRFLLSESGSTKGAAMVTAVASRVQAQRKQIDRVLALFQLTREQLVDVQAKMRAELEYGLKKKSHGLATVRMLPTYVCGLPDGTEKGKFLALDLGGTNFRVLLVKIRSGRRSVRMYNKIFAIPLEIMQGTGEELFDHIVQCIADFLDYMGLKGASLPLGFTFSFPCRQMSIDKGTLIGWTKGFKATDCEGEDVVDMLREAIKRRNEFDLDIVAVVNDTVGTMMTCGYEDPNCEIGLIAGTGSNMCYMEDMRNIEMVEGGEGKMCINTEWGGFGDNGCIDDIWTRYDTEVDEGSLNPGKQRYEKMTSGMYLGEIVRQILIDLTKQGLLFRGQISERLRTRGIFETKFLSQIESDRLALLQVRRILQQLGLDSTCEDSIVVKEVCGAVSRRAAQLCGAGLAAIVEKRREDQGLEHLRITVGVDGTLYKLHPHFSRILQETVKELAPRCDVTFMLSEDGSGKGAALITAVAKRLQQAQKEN

LIM domain kinase 1 = LIM domain kinase 1 (Homo sapiens, UniProt P53667); experiment: Navigating the Kinome. Panel member name: LIMK1; format: functional
[2] = biological target: Glycogen synthase kinase-3 beta (Homo sapiens, UniProt P49841); format: functional;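 also: value comes from a broad kinome profiling panel, with GSK3B as the panel member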
[3] = biological target: cAMP-dependent protein kinase catalytic subunit alpha (Homo sapiens, UniProt P17612); format: functional
[4] = biological target: Phosphorylase b kinase gamma catalytic chain, liver/testis isoform (Homo sapiens, UniProt P15735); format: functional;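 also: PHKG2 measured as one member of a kinome-wide kinase panel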
[5] = biological target: ALK tyrosine kinase receptor (Homo sapiens, UniProt Q9UM73); format: functional;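 also: ALK tested as one member of a kinase panel screen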
[6] = biological target: Calcium/calmodulin-dependent protein kinase type II subunit gamma (Homo sapiens, UniProt Q13555); format: functional
[7] = biological target: Serine/threonine-protein kinase 17A (Homo sapiens, UniProt Q9UEE5); format: functional
[8] = biological target: Rho-associated protein kinase 2 (Homo sapiens, UniProt O75116); format: functional
SRSF protein kinase 1 = SRSF protein kinase 1 (Homo sapiens, UniProt Q96SB4); format: functional;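 also: measured as one member of a kinome-wide kinase profiling panel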
[9] = biological target: Casein kinase I isoform alpha (Homo sapiens, UniProt P48729); format: functional
[10] = biological target: Tyrosine-protein kinase Blk (Homo sapiens, UniProt P51451); format: functional;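 also: obtained as one member of a kinome-wide kinase assay panel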
[11] = biological target: MAP kinase-interacting serine/threonine-protein kinase 2 (Homo sapiens, UniProt Q9HBH9); format: functional
[12] = biological target: Dual specificity tyrosine-phosphorylation-regulated kinase 4 (Homo sapiens, UniProt Q9NR20); format: functional
[13] = biological target: Tyrosine-protein kinase Fer (Homo sapiens, UniProt P16591); format: functional;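 also: FER tested as one member of a kinome panel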
[14] = biological target: Homeodomain-interacting protein kinase 4 (Homo sapiens, UniProt Q8NE63); format: functional
[15] = biological target: Tyrosine-protein kinase receptor UFO (Homo sapiens, UniProt P30530); format: functional
[16] = biological target: Tyrosine-protein kinase FRK (Homo sapiens, UniProt P42685); format: functional;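 also: FRK tested as one member of a kinome panel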

Dual specificity tyrosine-phosphorylation-regulated kinase 4, sequence (Q9NR20 whole entry): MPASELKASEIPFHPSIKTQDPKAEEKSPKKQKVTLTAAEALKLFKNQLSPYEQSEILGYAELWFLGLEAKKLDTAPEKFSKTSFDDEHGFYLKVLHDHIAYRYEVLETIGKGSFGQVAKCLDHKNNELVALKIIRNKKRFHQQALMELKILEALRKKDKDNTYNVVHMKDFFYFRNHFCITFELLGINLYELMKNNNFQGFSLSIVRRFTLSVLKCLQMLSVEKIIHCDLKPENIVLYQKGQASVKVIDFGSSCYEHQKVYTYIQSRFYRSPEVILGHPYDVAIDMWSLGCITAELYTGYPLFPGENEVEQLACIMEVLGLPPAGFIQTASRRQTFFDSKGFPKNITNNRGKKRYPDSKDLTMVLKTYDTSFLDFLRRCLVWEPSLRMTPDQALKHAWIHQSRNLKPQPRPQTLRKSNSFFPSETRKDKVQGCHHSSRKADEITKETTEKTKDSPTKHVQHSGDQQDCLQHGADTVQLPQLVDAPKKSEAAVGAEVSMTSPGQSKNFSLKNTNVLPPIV
Cystic fibrosis transmembrane conductance regulator/Golgi-associated PDZ and coiled-coil motif-containing protein, sequence (P13569 whole entry, other chains not shown): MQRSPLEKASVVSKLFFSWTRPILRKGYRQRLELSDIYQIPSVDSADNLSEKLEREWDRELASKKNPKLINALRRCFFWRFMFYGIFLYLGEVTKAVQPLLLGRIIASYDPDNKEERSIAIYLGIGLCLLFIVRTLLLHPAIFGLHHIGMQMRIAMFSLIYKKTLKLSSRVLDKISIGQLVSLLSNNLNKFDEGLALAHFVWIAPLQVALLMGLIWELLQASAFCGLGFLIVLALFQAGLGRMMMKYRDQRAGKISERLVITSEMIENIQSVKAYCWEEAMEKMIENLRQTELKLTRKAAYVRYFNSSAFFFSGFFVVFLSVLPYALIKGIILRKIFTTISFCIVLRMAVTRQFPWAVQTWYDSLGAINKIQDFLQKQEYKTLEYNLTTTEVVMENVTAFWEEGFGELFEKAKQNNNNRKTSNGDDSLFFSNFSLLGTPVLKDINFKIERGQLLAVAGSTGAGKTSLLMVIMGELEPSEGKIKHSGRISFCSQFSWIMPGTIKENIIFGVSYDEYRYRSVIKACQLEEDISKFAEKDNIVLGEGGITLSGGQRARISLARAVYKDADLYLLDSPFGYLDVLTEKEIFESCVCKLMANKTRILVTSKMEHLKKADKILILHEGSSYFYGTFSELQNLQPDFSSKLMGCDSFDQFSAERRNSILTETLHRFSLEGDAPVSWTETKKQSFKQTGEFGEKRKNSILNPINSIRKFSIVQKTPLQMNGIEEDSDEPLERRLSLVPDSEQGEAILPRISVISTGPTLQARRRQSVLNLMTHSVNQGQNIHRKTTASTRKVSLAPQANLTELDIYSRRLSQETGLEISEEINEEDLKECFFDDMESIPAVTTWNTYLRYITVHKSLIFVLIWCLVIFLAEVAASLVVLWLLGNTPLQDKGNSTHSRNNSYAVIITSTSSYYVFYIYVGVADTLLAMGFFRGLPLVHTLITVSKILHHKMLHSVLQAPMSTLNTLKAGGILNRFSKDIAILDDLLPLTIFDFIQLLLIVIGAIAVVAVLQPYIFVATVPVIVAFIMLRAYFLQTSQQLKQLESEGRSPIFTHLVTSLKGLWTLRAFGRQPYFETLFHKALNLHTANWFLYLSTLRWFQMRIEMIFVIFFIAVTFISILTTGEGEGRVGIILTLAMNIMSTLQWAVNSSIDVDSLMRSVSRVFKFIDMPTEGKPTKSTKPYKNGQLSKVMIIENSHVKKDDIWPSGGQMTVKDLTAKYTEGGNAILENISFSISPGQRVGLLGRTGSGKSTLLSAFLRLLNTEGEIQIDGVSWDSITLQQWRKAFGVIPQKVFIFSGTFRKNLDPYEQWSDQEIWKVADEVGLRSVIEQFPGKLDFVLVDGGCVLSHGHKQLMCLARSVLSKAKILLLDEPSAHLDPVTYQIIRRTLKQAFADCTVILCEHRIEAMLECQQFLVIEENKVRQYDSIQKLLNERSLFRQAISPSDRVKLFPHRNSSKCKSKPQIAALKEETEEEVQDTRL
Serine/threonine-protein kinase 17A, sequence (Q9UEE5 whole entry): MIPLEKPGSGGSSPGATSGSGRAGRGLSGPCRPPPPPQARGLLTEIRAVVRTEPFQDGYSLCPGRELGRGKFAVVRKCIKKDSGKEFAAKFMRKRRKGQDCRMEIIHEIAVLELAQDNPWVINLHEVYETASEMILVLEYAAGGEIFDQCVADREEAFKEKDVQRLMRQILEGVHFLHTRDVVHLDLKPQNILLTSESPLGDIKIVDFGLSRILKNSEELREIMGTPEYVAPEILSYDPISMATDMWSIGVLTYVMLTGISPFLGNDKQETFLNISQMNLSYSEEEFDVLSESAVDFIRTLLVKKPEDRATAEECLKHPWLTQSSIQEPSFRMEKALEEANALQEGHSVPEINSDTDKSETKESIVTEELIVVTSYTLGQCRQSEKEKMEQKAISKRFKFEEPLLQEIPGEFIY
LIM domain kinase 1, sequence (P53667 whole entry, the tested form may be a part): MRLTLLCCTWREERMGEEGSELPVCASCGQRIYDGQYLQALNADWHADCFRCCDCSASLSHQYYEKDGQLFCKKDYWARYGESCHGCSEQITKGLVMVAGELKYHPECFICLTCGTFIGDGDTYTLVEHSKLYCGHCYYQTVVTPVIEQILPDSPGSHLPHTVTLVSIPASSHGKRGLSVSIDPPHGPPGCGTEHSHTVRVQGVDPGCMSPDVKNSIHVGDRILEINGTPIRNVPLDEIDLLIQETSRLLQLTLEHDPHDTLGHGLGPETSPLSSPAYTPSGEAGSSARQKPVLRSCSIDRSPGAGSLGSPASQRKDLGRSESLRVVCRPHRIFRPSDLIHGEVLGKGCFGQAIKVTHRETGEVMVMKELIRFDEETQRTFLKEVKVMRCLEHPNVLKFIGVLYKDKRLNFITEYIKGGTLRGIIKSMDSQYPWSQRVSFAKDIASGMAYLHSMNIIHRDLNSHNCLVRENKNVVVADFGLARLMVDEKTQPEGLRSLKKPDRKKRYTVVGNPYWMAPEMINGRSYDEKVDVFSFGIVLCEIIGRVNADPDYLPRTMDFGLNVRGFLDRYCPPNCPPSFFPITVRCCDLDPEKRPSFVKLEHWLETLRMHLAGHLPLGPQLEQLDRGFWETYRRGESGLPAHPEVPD
Tyrosine-protein kinase Fer, sequence (P16591 whole entry): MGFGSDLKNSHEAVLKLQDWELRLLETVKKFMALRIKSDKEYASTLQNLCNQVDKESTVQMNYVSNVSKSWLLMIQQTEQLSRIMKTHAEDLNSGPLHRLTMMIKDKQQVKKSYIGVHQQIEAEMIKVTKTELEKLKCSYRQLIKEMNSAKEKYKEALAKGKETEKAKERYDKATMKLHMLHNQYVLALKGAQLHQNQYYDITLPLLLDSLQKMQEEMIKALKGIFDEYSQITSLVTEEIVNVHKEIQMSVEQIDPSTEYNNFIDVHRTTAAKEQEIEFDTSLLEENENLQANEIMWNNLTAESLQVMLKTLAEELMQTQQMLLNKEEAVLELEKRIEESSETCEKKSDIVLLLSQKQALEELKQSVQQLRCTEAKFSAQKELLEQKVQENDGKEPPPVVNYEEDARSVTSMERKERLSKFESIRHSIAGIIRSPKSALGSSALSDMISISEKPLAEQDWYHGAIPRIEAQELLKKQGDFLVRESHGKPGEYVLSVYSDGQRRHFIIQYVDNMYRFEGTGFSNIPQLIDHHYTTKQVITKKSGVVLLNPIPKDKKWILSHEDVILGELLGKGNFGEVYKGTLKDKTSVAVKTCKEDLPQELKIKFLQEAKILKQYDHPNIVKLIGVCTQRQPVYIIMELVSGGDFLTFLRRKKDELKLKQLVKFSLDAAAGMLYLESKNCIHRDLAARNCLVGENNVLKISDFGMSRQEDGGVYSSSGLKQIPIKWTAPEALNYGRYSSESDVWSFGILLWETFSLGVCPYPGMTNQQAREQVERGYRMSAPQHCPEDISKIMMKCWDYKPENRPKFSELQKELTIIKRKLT
Calcium/calmodulin-dependent protein kinase type II subunit gamma, sequence (Q13555 whole entry): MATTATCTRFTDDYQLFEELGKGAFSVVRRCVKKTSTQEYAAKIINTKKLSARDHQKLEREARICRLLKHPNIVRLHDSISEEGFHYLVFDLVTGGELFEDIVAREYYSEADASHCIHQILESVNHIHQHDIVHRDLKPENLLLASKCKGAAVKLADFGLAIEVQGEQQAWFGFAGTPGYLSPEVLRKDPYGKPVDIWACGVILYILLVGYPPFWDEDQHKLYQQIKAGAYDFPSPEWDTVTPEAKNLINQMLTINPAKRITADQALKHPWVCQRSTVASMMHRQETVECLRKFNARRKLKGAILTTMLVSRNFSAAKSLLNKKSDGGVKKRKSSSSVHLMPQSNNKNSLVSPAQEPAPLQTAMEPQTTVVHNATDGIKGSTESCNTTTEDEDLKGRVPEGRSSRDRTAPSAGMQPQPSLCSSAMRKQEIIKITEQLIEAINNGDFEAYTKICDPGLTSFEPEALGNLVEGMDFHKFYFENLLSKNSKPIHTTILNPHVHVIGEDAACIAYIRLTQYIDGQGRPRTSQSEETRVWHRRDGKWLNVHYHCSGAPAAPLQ
Glycogen synthase kinase-3 beta, sequence (P49841 whole entry): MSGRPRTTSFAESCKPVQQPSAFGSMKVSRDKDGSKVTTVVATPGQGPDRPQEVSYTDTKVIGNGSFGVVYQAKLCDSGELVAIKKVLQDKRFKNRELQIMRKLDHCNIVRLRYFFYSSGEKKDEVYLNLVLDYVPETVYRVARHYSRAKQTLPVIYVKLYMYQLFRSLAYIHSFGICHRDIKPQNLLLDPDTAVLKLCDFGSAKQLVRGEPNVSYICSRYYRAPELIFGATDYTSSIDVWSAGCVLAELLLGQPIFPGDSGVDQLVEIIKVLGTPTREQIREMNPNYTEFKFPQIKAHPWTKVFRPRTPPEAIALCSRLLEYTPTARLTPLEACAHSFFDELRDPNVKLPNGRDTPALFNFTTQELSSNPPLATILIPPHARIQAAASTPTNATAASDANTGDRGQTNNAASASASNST

Compound: CC(=O)NC1C(=O)N(CCN2CCOCC2)c2ccc(Cl)cc21 (stereo not given)
IC50 (SUMO-activating enzyme): 13400 nM (active)
AC50 [1]: 26800 nM (active)
IC50 (Hexokinase HKDC1): 11500 nM (active)

Ki (LIM domain kinase 1): 3160 nM (active)
Ki [2]: 3160 nM (active)
Ki [3]: > 7940 nM (inactive)
Compound: Cc1c(C=O)c(O)n2c(nc3ccccc32)c1C#N

Ki [4]: 2510 nM (active)
Ki [5]: > 1260 nM (inactive)
Ki [6]: 10 nM (active)
Ki [7]: 501 nM (active)
Ki [8]: 20 nM (active)
Ki (SRSF protein kinase 1): 631 nM (active)
Ki [9]: 2510 nM (active)
Ki [10]: > 1580 nM (inactive)
Ki [11]: 631 nM (active)
Ki [12]: 126 nM (active)
Ki [13]: > 1580 nM (inactive)
Ki [14]: 25.1 nM (active)
Ki [15]: > 2000 nM (inactive)
Ki [16]: > 2510 nM (inactive)
Compound: Cc1n[nH]c2cnc(-c3cncc(OCC(N)Cc4cccc(C(F)(F)F)c4)c3)cc12 (stereo not given)
